This passage reports IC50 results from US12304916B2, “Thienopyridinyl and thiazolopyridinyl compounds useful as IRAK4 inhibitors” (BRISTOL-MYERS SQUIBB COMPANY, priority 2019, dated 2025).

IRAK4, sequence (Q9NWZ3 whole entry, species assumed): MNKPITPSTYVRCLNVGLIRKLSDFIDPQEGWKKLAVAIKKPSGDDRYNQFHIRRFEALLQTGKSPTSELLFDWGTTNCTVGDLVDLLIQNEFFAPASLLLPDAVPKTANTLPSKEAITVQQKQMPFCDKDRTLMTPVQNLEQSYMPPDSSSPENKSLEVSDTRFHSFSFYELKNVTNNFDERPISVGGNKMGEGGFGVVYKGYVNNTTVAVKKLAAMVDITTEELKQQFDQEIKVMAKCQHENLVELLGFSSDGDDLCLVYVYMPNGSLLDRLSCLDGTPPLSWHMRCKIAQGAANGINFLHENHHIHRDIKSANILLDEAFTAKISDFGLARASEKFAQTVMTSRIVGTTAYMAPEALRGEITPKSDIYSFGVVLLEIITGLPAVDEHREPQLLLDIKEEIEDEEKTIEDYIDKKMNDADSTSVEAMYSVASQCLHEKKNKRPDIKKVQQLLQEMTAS

This test concerns the target IRAK4 (Homo sapiens (Human), UniProt Q9NWZ3). Put plainly: IRAK4 Inhibition Assay. The test is classed as biochemical. The following applies: ATP 500 μM; IRAK4 0.6 nM; 60 min at room temperature. How it is done: The assays were performed in U-bottom 384-well plates. The final assay volume was 30 μL prepared from 15 μL additions of enzyme and substrates (fluoresceinated peptide and ATP) and test compounds in assay buffer (20 mM HEPES pH 7.2, 10 mM MgCl2, 0.015% Brij 35 and 4 mM DTT). The reaction was initiated by the combination of IRAK4 with substrates and test compounds. The reaction mixture was incubated at room temperature for 60 min. and terminated by adding 45 μL of 35 mM EDTA to each sample. The reaction mixture was analyzed on the Caliper LABCHIP® 3000 (Caliper, Hopkinton, MA) by electrophoretic separation of the fluorescent substrate and phosphorylated product. Inhibition data were calculated by comparison to no enzyme control reactions for 100% inhibition and vehicle-only reactions for 0% inhibition. The final concentrations of reagents in the assays are ATP, 500 μM; FL-IPTSPITTTYFFFKKK peptide 1.5 μM; IRAK4, 0.6 nM; and DMSO, 1.6%.
What is called IC50 is the concentration at which inhibition is half-maximal. Consider `CC(C)(O)[C@H](F)CNC(=O)c1cnc2sc(-c3ccccc3)nc2c1NC1CCCC1` [Example 3, (R)-7-(cyclopentylamino)-N-(2-fluoro-3-hydroxy-3-methylbutyl)-2-phenylthiazolo[5,4-b]pyridine-6-carboxamide], for which the half-maximal inhibitory concentration (IC50) came to 0.034 µM.
The figure for `CC(C)CCc1nc(-c2cnc3sc(-c4cncs4)cc3c2NC(C)C)n[nH]1` [Example 77, 5-(5-isopentyl-1H-1,2,4-triazol-3-yl)-N-isopropyl-2-(thiazol-5-yl)thieno[2,3-b]pyridin-4-amine] is 0.289 µM; for `CC(C)Nc1c(C(=O)NC[C@@H](F)C(C)(C)O)cnc2sc(-c3ccc(C#N)nc3)cc12` [Example 64, (R)-2-(6-cyanopyridin-3-yl)-N-(2-fluoro-3-hydroxy-3-methylbutyl)-4-(isopropylamino)thieno[2,3-b]pyridine-5-carboxamide] it is 0.0085 µM; for `COCCNC(=O)c1cnc2sc(-c3cncs3)cc2c1NC(C)C` [Example 34, 4-(isopropylamino)-N-(2-methoxyethyl)-2-(thiazol-5-yl)thieno[2,3-b]pyridine-5-carboxamide] it is 0.03 µM.
The figure for `CC(C)Nc1c(C(=O)NC(CCO)C2CC2)cnc2sc(-c3cncs3)cc12` (stereo not shown) [Example 39, N-(1-cyclopropyl-3-hydroxypropyl)-4-(isopropylamino)-2-(thiazol-5-yl)thieno[2,3-b]pyridine-5-carboxamide] is 0.554 µM; for `CC(=O)N1CCC(NC(=O)c2cnc3sc(-c4ccc(=O)[nH]c4)cc3c2NC(C)C)CC1` [Example 66, N-(1-acetylpiperidin-4-yl)-4-(isopropylamino)-2-(6-oxo-1,6-dihydropyridin-3-yl)thieno[2,3-b]pyridine-5-carboxamide] it is 0.0371 µM.
Consider `CC(C)Nc1c(C(=O)NC[C@@H](F)C(C)(C)O)cnc2sc(-c3cncc(C#N)c3)cc12` [Example 65, (R)-2-(5-cyanopyridin-3-yl)-N-(2-fluoro-3-hydroxy-3-methylbutyl)-4-(isopropylamino)thieno[2,3-b]pyridine-5-carboxamide], for which the IC50 turned out to be 0.0186 µM.
With `CC(C)Nc1c(C(=O)NC[C@@H](F)C(C)(C)O)cnc2sc(Nc3ccc(-n4cccn4)cc3)nc12` [Example 15, (R)-2-((4-(1H-pyrazol-1-yl)phenyl)amino)-N-(2-fluoro-3-hydroxy-3-methylbutyl)-7-(isopropylamino)thiazolo[5,4-b]pyridine-6-carboxamide], the IC50 came to 2.38 µM.
In the case of `CC(C)Nc1c(-n2cc(CCC(C)(C)O)nn2)cnc2sc(-c3cccnc3)cc12` [Example 74, 4-(1-(4-(isopropylamino)-2-(pyridin-3-yl)thieno[2,3-b]pyridin-5-yl)-1H-1,2,3-triazol-4-yl)-2-methylbutan-2-ol], the IC50 was determined as 0.171 µM.
With `CC(C)Nc1c(-n2cc(CCC(C)(C)O)nn2)cnc2sc(-c3ccncc3)cc12` [Example 75, 4-(1-(4-(isopropylamino)-2-(pyridin-4-yl)thieno[2,3-b]pyridin-5-yl)-1H-1,2,3-triazol-4-yl)-2-methylbutan-2-ol] the figure was 0.0448 µM.
Consider `CCNc1c(C(=O)NC[C@@H](F)C(C)(C)O)cnc2sc(-c3ccccc3)nc12` [Example 5, (R)-7-(ethylamino)-N-(2-fluoro-3-hydroxy-3-methylbutyl)-2-phenylthiazolo[5,4-b]pyridine-6-carboxamide], for which the IC50 came out at 0.0462 µM.
The figure for `CC(C)(O)CCNC(=O)c1cnc2sc(-c3cccnc3)nc2c1NC1CCOCC1` [Example 12, N-(3-hydroxy-3-methylbutyl)-2-(pyridin-3-yl)-7-((tetrahydro-2H-pyran-4-yl)amino) thiazolo[5,4-b]pyridine-6-carboxamide] is 0.168 µM; for `C[C@H](CO)Nc1c(C(=O)NCCC#N)cnc2sc(-c3ccccc3)nc12` [Example 9, (R)-N-(2-cyanoethyl)-7-((1-hydroxypropan-2-yl)amino)-2-phenylthiazolo[5,4-b]pyridine-6-carboxamide] it is 0.44 µM.
As for `O=C(NCCN1CCC(O)CC1)c1cnc2sc(-c3cccnc3)nc2c1NC1CCOCC1` [Example 13, N-(2-(4-hydroxypiperidin-1-yl)ethyl)-2-(pyridin-3-yl)-7-((tetrahydro-2H-pyran-4-yl)amino)thiazolo[5,4-b]pyridine-6-carboxamide], the IC50 stood at 0.517 µM.
Consider `CC(C)Nc1c(C(=O)NC[C@@H](F)C(C)(C)O)cnc2sc(Nc3ccc(S(C)(=O)=O)cc3)nc12` [Example 17, (R)-N-(2-fluoro-3-hydroxy-3-methylbutyl)-7-(isopropylamino)-2-((4-(methylsulfonyl)phenyl)amino)thiazolo[5,4-b]pyridine-6-carboxamide], for which the IC50 stood at 0.797 µM.
`C[C@H](CCO)NC(=O)c1cnc2sc(-c3cncs3)cc2c1Nc1cnn(CC(F)F)c1` [Example 48, (R)-4-((1-(2,2-difluoroethyl)-1H-pyrazol-4-yl)amino)-N-(4-hydroxybutan-2-yl)-2-(thiazol-5-yl)thieno[2,3-b]pyridine-5-carboxamide]: the IC50 worked out at 1.88 µM.
The figure for `CC(C)Nc1c(C(=O)NC[C@@H](F)C(C)(C)O)cnc2sc(-c3cscn3)cc12` [Example 62, (R)-N-(2-fluoro-3-hydroxy-3-methylbutyl)-4-(isopropylamino)-2-(thiazol-4-yl)thieno[2,3-b]pyridine-5-carboxamide] is 0.0351 µM; for `CC(C)Nc1c(C(=O)NC[C@@H](F)C(C)(C)O)cnc2sc(Nc3cccnc3)nc12` [Example 16, (R)-N-(2-fluoro-3-hydroxy-3-methylbutyl)-7-(isopropylamino)-2-(pyridin-3-ylamino)thiazolo[5,4-b]pyridine-6-carboxamide] it is 0.124 µM; for `CC(C)CCNC(=O)c1cnc2sc(-c3cccnc3)cc2c1NC(C)C` [Example 31, N-isopentyl-4-(isopropylamino)-2-(pyridin-3-yl) thieno[2,3-b]pyridine-5-carboxamide] it is 0.0351 µM.
For the molecule `CC(=O)O[C@H]1CC[C@H](NC(=O)c2cnc3sc(-c4cccnc4)nc3c2NC(C)C)CC1` [Example 20, (1r,4r)-4-(7-(isopropylamino)-2-(pyridin-3-yl)thiazolo[5,4-b]pyridine-6-carboxamido)cyclohexyl acetate], the IC50 is 0.0123 µM.
For the molecule `O=C(N[C@H]1CC[C@H](O)CC1)c1cnc2sc(-c3cncs3)cc2c1NC1COC1` [Example 54, N-((1s,4s)-4-hydroxycyclohexyl)-4-(oxetan-3-ylamino)-2-(thiazol-5-yl)thieno[2,3-b]pyridine-5-carboxamide], the IC50 is 0.193 µM.
With `O=C(NCc1ncn[nH]1)c1cnc2sc(-c3cncs3)cc2c1NC1COC1` [Example 55, N-((1H-1,2,4-triazol-5-yl)methyl)-4-(oxetan-3-ylamino)-2-(thiazol-5-yl)thieno[2,3-b]pyridine-5-carboxamide] the figure was 0.2 µM; with `CC(C)Nc1c(C(=O)N[C@H]2CC[C@H](O)CC2)cnc2sc(-c3cncs3)cc12` [Example 36, N-((1r,4r)-4-hydroxycyclohexyl)-4-(isopropylamino)-2-(thiazol-5-yl)thieno[2,3-b]pyridine-5-carboxamide], 0.0206 µM.
The figure for `C[C@H](CO)Nc1c(C(=O)NCCS(C)(=O)=O)cnc2sc(-c3ccccc3)nc12` [Example 10, (R)-7-((1-hydroxypropan-2-yl)amino)-N-(2-(methylsulfonyl)ethyl)-2-phenylthiazolo[5,4-b] pyridine-6-carboxamide] is 0.734 µM; for `CC(C)Nc1c(C(=O)NCCC2(CO)CC2)cnc2sc(-c3cncs3)cc12` [Example 37, N-(2-(1-(hydroxymethyl)cyclopropyl)ethyl)-4-(isopropylamino)-2-(thiazol-5-yl)thieno[2,3-b]pyridine-5-carboxamide] it is 0.384 µM.
For `CC(=O)N[C@H]1CC[C@H](NC(=O)c2cnc3sc(-c4cncs4)cc3c2NC(C)C)CC1` [Example 45, N-((1r,4r)-4-acetamidocyclohexyl)-4-(isopropylamino)-2-(thiazol-5-yl)thieno[2,3-b]pyridine-5-carboxamide], the IC50 turned out to be 0.0037 µM.
Consider `CC(C)Nc1c(C(=O)NCCC(F)(F)F)cnc2sc(-c3cccnc3)nc12` [Example 18, 7-(isopropylamino)-2-(pyridin-3-yl)-N-(3,3,3-trifluoropropyl) thiazolo[5,4-b]pyridine-6-carboxamide], for which the IC50 is 0.323 µM.
The figure for `CC(C)Nc1c(C(=O)NCCN2CCS(=O)(=O)CC2)cnc2sc(-c3ccc(=O)[nH]c3)cc12` [Example 73, N-(2-(1,1-dioxidothiomorpholino)ethyl)-4-(isopropylamino)-2-(6-oxo-1,6-dihydropyridin-3-yl)thieno[2,3-b]pyridine-5-carboxamide] is 0.0242 µM; for `CC(C)Nc1c(C(=O)NCC2(CO)COC2)cnc2sc(-c3cncs3)cc12` [Example 47, N-((3-(hydroxymethyl)oxetan-3-yl)methyl)-4-(isopropylamino)-2-(thiazol-5-yl)thieno[2,3-b]pyridine-5-carboxamide] it is 0.215 µM; for `CC(C)(O)[C@H](F)CNC(=O)c1cnc2sc(-c3cccnc3)nc2c1NC1CCOCC1` [Example 14, (R)-N-(2-fluoro-3-hydroxy-3-methylbutyl)-2-(pyridin-3-yl)-7-((tetrahydro-2H-pyran-4-yl)amino)thiazolo[5,4-b]pyridine-6-carboxamide] it is 0.0399 µM.
The figure for `C[C@H](CO)Nc1c(C(=O)NCCC(C)(C)O)cnc2sc(-c3ccccc3)nc12` [Example 7, (R)-N-(3-hydroxy-3-methylbutyl)-7-((1-hydroxypropan-2-yl)amino)-2-phenylthiazolo[5,4-b]pyridine-6-carboxamide] is 0.172 µM.
